Measured values published in ChEMBL document CHEMBL1944510, “Potent galloyl-based selective modulators targeting multidrug resistance associated protein 1 and P-glycoprotein” (J Med Chem, 2012).

Target: ATP-dependent translocase ABCB1 (Homo sapiens, UniProt P08183)
Assay: Inhibition of human MDR1 expressed in MDCK cells assessed as calcein AM accumulation after 30 mins by fluorescence assay
Format: cell-based
Settings: read-out: IC50

ATP-dependent translocase ABCB1, sequence (P08183 whole entry): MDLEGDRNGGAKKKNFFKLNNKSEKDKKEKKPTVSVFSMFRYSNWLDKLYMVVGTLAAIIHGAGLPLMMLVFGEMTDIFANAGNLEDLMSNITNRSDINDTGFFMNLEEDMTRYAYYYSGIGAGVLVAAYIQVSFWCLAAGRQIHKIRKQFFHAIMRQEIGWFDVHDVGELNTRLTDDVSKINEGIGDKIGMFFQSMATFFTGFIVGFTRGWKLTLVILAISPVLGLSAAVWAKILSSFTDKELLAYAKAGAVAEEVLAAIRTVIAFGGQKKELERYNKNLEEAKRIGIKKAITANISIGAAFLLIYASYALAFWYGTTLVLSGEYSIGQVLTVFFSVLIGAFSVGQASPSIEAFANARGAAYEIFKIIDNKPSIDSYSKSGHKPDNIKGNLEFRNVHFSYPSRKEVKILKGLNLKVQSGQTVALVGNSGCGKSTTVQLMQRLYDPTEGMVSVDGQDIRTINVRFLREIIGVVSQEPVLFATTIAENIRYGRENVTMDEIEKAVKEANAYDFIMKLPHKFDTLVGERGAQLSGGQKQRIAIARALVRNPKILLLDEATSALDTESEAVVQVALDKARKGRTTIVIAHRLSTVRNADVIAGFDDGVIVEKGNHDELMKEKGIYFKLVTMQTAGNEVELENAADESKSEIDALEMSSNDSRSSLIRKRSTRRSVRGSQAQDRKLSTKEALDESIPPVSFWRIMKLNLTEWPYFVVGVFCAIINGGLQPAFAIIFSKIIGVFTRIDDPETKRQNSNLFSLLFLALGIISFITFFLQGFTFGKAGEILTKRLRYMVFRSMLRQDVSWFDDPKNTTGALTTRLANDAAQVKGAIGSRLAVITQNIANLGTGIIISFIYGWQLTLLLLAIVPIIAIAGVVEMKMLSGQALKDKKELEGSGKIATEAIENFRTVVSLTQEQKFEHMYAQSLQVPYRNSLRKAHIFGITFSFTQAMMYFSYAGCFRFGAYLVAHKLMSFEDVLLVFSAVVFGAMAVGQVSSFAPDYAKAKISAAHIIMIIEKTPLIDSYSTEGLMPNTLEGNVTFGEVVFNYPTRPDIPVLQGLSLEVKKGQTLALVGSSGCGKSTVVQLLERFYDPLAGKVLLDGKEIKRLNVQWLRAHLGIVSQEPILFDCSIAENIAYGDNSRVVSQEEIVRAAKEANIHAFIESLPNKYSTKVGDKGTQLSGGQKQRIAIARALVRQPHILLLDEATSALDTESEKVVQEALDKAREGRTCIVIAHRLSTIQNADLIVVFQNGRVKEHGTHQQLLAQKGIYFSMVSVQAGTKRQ

SMILES | IC50
COc1cc(C(=O)Nc2ccc(Br)cc2)cc(OC)c1OC | 20 µM
COc1cc(C(=O)Nc2ccc(-c3ccccc3)cc2)cc(OC)c1OC | > 100 µM
COc1cc(C(=O)Nc2ccc(-c3ccccc3)cc2N)cc(OC)c1OC | 7.2 µM
COc1cc(C(=O)Nc2ccc(-c3ccccc3)cc2F)cc(OC)c1OC | 1.4 µM
COc1cc(C(=O)Nc2ccc(-c3ccccc3)cc2[N+](=O)[O-])cc(OC)c1OC | > 100 µM
COc1cc(C(=O)Nc2ccc(-c3ccccc3)cc2NC(C)=O)cc(OC)c1OC | 1.9 µM
COc1cc(C(=O)Nc2ccc(Br)cc2[N+](=O)[O-])cc(OC)c1OC | > 100 µM
COc1ccc(NC(=O)c2cc(OC)c(OC)c(OC)c2)c([N+](=O)[O-])c1 | > 100 µM
COc1cc(C(=O)Nc2cc(-c3ccccc3)ccc2[N+](=O)[O-])cc(OC)c1OC | 0.57 µM
COc1cc(C(=O)Nc2ccc(-c3cccs3)cc2[N+](=O)[O-])cc(OC)c1OC | 17.3 µM
COc1cc(C(=O)Nc2ccc(-c3cccnc3)cc2[N+](=O)[O-])cc(OC)c1OC | 6.8 µM
COc1cc(C(=O)Nc2ccc(-c3ccc4c(c3)OCO4)cc2[N+](=O)[O-])cc(OC)c1OC | 0.2 µM
COc1cc(C(=O)Nc2ccc(-c3cccc(C(C)=O)c3)cc2[N+](=O)[O-])cc(OC)c1OC | 0.6 µM
COc1cc(C(=O)Nc2ccc(-c3cc(OC)c(OC)c(OC)c3)cc2[N+](=O)[O-])cc(OC)c1OC | 24.3 µM
COc1cc(C(=O)Nc2ccc(-c3cccc([N+](=O)[O-])c3)cc2[N+](=O)[O-])cc(OC)c1OC | 0.4 µM
COc1cc(C(=O)Nc2ccc(-c3ccc[n+](C)c3)cc2[N+](=O)[O-])cc(OC)c1OC | 34 µM
COc1ccc(C(=O)Nc2ccc(-c3ccccc3)cc2[N+](=O)[O-])cc1OC | 1.3 µM
COc1cc(OC)cc(C(=O)Nc2ccc(-c3ccccc3)cc2[N+](=O)[O-])c1 | 6.6 µM
COc1cc(CNc2ccc(-c3ccccc3)cc2[N+](=O)[O-])cc(OC)c1OC | 1.5 µM
COc1cc(NC(=O)c2ccc(-c3ccccc3)cc2[N+](=O)[O-])cc(OC)c1OC | 2 µM
O=C(Nc1ccc(Br)cc1[N+](=O)[O-])c1cc(O)c(O)c(O)c1 | > 100 µM

SMILES | IC50
O=C(Nc1ccc(-c2ccccc2)cc1[N+](=O)[O-])c1cc(O)c(O)c(O)c1 | > 100 µM
O=C(Nc1ccc(-c2ccccc2)cc1[N+](=O)[O-])c1cc(O)cc(O)c1 | 72 µM
COc1cc(C(=O)Nc2ccc(Br)cc2[N+](=O)[O-])cc(O)c1O | 38.4 µM
COc1ccc(NC(=O)c2cc(O)c(O)c(OC)c2)c([N+](=O)[O-])c1 | 65 µM
COc1cc(C(=O)Nc2cc(-c3ccccc3)ccc2[N+](=O)[O-])cc(O)c1O | 40.2 µM
COc1cc(C(=O)Nc2ccc(-c3ccccc3)cc2[N+](=O)[O-])cc(O)c1O | 67 µM
COc1cc(C(=O)Nc2ccc(-c3cc(F)cc(F)c3)cc2[N+](=O)[O-])cc(O)c1O | 16.8 µM
COc1cc(C(=O)Nc2ccc(-c3ccc(O)c(O)c3)cc2[N+](=O)[O-])cc(O)c1O | > 100 µM
COc1cc(C(=O)Nc2ccc(-c3cccc(C(C)=O)c3)cc2[N+](=O)[O-])cc(O)c1O | 9.1 µM
COc1cc(C(=O)Nc2ccc(-c3cc(O)c(O)c(OC)c3)cc2[N+](=O)[O-])cc(O)c1O | 3.1 µM
COc1cc(C(=O)Nc2ccc(-c3cccc([N+](=O)[O-])c3)cc2)cc(O)c1O | 32.5 µM
COc1cc(C(=O)Nc2ccc(-c3ccccc3)cc2)cc(O)c1O | > 100 µM
COc1cc(C(=O)Nc2ccc(-c3ccccc3)cc2N)cc(O)c1O | > 100 µM
COc1cc(C(=O)Nc2ccc(-c3ccccc3)cc2F)cc(O)c1O | 14.1 µM
COc1cc(C(=O)Nc2ccc(-c3ccccc3)cc2NC(C)=O)cc(O)c1O | > 100 µM
COc1ccc(C(=O)Nc2ccc(-c3ccccc3)cc2[N+](=O)[O-])cc1O | 3.5 µM
COc1cc(CNc2ccc(-c3ccccc3)cc2[N+](=O)[O-])cc(O)c1O | 72 µM
COc1cc(NC(=O)c2ccc(-c3ccccc3)cc2[N+](=O)[O-])cc(O)c1O | > 100 µM
COC1=CC(C(=O)Nc2ccc(-c3ccccc3)cc2[N+](=O)[O-])=CC(=O)C1=O | > 100 µM
COc1ccc(CCN(C)CCCC(C#N)(c2ccc(O)c(O)c2)C(C)C)cc1OC (racemic) | 31.7 µM

Same assay, conditions: read-out: pIC50 (converted)

SMILES | IC50
COc1cc(C(=O)Nc2cc(-c3ccccc3)ccc2[N+](=O)[O-])cc(OC)c1OC | 0.57 µM
COc1cc(C(=O)Nc2ccc(-c3ccc4c(c3)OCO4)cc2[N+](=O)[O-])cc(OC)c1OC | 0.2 µM
COc1cc(C(=O)Nc2ccc(-c3cccc(C(C)=O)c3)cc2[N+](=O)[O-])cc(OC)c1OC | 0.6 µM
COc1cc(C(=O)Nc2ccc(-c3cc(OC)c(OC)c(OC)c3)cc2[N+](=O)[O-])cc(OC)c1OC | 24.3 µM
COc1cc(C(=O)Nc2ccc(-c3cccc([N+](=O)[O-])c3)cc2[N+](=O)[O-])cc(OC)c1OC | > 1 µM

System: not listed separately
Assay: Chemical stability of the compound at 1 to 100 uM after 1 hr by ESI-MS analysis
Format: physicochemical
Settings: not given

SMILES | Stability
COc1cc(C(=O)Nc2ccc(-c3ccccc3)cc2[N+](=O)[O-])cc(OC)c1OC | Stable
O=C(Nc1ccc(-c2ccccc2)cc1[N+](=O)[O-])c1cc(O)c(O)c(O)c1 | Stable
COc1cc(C(=O)Nc2ccc(-c3ccccc3)cc2[N+](=O)[O-])cc(O)c1O | Stable
